Data taken from patent publication US20250154198A1, “PEPTIDE INHIBITORS OF INTERLEUKIN-23 RECEPTOR” (Zealand Pharma A/S, priority 2021, published 2025).
Where two headings read alike, the source gives them in different places. *1 amine or outer side, *2 acyl side, *3 side chain or, on linkers, in order; H or OH if unused. Where a SMILES comes first, the peptide text is derived from it. Bridges are numbered along the chain shown (N, C = ends). [ ]: non-standard residue; d: D form. Trp(7-Me) = Cc1cccc2c(C[C@H](N)C(=O)O)c[nH]c12; 2Nal = N[C@@H](Cc1ccc2ccccc2c1)C(=O)O; AEF = NCCOc1ccc(C[C@H](N)C(=O)O)cc1; X20 = O=C(c1ccc(CCN[*:1])cc1)[*:2]; X24 = O=C(CCc1ccc(N[*:1])cc1)[*:2]; X1 = O=C(Cc1ccc(CN[*:1])cc1)[*:2]; αMeL = CC(C)C[C@](C)(N)C(=O)O; CH2COCH2 = O=C(C[*:1])C[*:2]; 3Amb = NCc1cccc(C(=O)O)c1; 4Amb = NCc1ccc(C(=O)O)cc1; Orn = NCCC[C@H](N)C(=O)O; Dab = NCC[C@H](N)C(=O)O

Target: T1, human IL-23R (Homo sapiens, UniProt Q5VWK5)
T1 construct: UniProtKB—Q5VWK5, amino acids 22-629; secretion signal of the plasmid (Promega N1371); expressed in transfected cells
T1 sequence (Q5VWK5 22-629): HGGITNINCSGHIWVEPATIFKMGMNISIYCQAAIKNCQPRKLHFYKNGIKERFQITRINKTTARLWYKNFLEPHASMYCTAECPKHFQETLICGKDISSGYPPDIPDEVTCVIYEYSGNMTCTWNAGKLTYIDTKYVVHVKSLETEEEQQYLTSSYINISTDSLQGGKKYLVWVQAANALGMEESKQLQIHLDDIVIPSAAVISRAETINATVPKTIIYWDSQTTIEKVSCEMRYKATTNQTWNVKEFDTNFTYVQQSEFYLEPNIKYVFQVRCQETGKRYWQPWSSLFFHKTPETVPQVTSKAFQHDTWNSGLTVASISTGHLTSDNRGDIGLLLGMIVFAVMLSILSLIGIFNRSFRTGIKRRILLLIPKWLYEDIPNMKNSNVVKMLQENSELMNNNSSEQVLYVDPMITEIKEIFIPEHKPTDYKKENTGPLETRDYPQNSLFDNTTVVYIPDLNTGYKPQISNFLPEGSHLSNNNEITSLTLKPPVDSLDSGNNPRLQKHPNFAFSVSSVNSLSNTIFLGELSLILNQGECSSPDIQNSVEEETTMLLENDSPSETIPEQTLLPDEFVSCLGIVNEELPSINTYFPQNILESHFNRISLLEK
Assay: Binding assay (NanoBRET displacement of fluorophore-labelled reference compound) for estimating binding affinity to human IL-23R
From the text: Binding Assay for Estimating Binding Affinity of Compounds to Human IL-23R
The compound binding affinity for IL-23R was estimated by the ability of compounds to displace a fluorophore-labelled reference compound from the human IL-23R. The assay principle relies on Bioluminescence Resonance Energy Transfer (BRET) between a fluorophore-labelled reference compound binding to the IL-23R part of a fusion protein consisting of the IL-23R fused to a Nanoluc luciferase enzyme (Nanoluc). The Nanoluc is placed in the N-terminus in close proximity to the binding domain of the ligand. Upon close proximity between the fluorophore of the fluorophore-labelled compound and the Nanoluc of the fusion protein, bioluminescence energy generated from conversion of a Nanoluc substrate, is transferred to the fluorophore resulting in an increase in BRET. In presence of an unlabelled compound, the unlabelled compound displaces the fluorophore-labelled peptide from its binding site resulting in a decrease in BRET. The concentration for which half of the fluorophore-labelled peptide is displaced by the unlabelled compound depends on the affinity of the compound for the IL-23R, and is termed the IC50 concentration. An estimated affinity (K) of the unlabelled compound for the IL-23R may be calculated using the Cheng-Prussov equation, which takes into account the concentration of the fluorophore-labelled compound used, and the affinity of the fluorophore-labelled compound for IL-23R.
The plasmid also contained a gene to confer resistance for the antibiotic hygromycin. A cell line stably expressing the Nluc-IL23R fusion protein was generated by transfection of HEK293 cells with the expression plasmid and selected with hygromycin for 3 weeks in Growth medium consisting of DMEM w/Glutamax-I containing, 10% V/V FBS, 1% V/V P/S, 1 mM Sodium Pyruvate, and 1×NEAA, and 0.3 mg/mL hygromycin. The remaining cells were propagated and considered a stable expressing Nluc-IL23R fusion protein pool clone.
Cells expressing the Nluc-IL23R fusion protein were expanded in Growth medium and membranes prepared by homogenization of a cell pellet from 18 T175 flasks (4° C. in subsequent steps). The cell pellet was lysed Tris 10 mM, 7.5, 1 mM EDTA and protease inhibitors (Complete, Roche) and homogenized using a 15 mL glass-dounce by 50 strokes. The homogenate was spun at spin @1500 rpm for 10 min, the supernatant transferred to SV-34 tubes and spun at 40000 g for 20 min at 4° C. to pellet the crude membranes. The supernatant was then removed, the pellet resuspended in 5 mL buffer containing 50 mM HEPES pH 7.4, 5 mM EGTA, and 5 mM MgCl2, and homogenized. Aliquots of the resuspended and homogenized membranes containing the Nluc-IL23R fusion protein were stored at −80° C. until use.
The plate was sealed with light impermeable plate seals, and incubated on a orbital shaker 400 rpm for 2 hours at room temperature. To determine the BRET ratio, the plate seal was removed and 25 μL of the Nanoluc substrate (Promega N1572) diluted 1:500 was added to each well and incubated for 1-2 minutes on an orbital shaker at 400 rpm. […] The BRET ratio was calculated as the fluorescence from the TAMRA/nanoluc bioluminescence. The IC50 for each compound was determined by computer-aided curve fitting using a 4-parameter logistic (4PL) non-linear model.

[1] = Table 3-1, read-out: Ki hIL-23R
[2] = Table 2-10b, read-out: Ki IL-23R

CC(C)C[C@]1(C)NC(=O)[C@H](Cc2ccc3ccccc3c2)NC(=O)[C@H](Cc2ccc(OCCN)cc2)NC(=O)[C@@H]2CCC(=O)NCCC[C@H](NC(=O)[C@H](CO)NC(=O)c3cccc(c3)CNC(=O)CC[C@@H](C(=O)N[C@@H](CCCNC(=N)N)C(N)=O)NC1=O)C(=O)N[C@@H](Cc1c[nH]c3ccccc13)C(=O)N[C@@H](CCC(N)=O)C(=O)N2 (relative stereo) [Compound 68, [(3-Aminomethyl)benzoyl](1c)*S[Orn](2c)WQE(2c)[Y(2-aminoethoxy)][2-Nal][2-Me-Leu]E(1c)R-[NH2]]
Ki [1]: 3.32 nM

CC(C)C[C@]1(C)NC(=O)[C@H](Cc2c[nH]c3ccccc23)NC(=O)[C@H](Cc2c[nH]c3ccccc23)NC(=O)[C@@H]2CSCC(=O)CSC[C@H](NC(=O)[C@H]([C@@H](C)O)NC(=O)[C@@H](NC(=O)CN)CSCC(=O)CSC[C@@H](C(=O)N[C@@H](CO)C(N)=O)NC1=O)C(=O)N[C@@H](Cc1c[nH]c3ccccc13)C(=O)N[C@@H](CCC(=O)O)C(=O)N2 (single isomer, unassigned) [I5 (isomer 3), H-GC(1a)TC(2a)WEC(2a)WW[2-Me-Leu]C(1a)S-[NH2], reference compound]
potency for IL-23R (in words) (in comparison with Protagonist's Compound C): lower potency

CC(C)C[C@]1(C)NC(=O)[C@H](Cc2ccc3ccccc3c2)NC(=O)[C@H](Cc2ccc(OCCN)cc2)NC(=O)[C@@H]2CSCC(=O)CSC[C@H](NC(=O)[C@H](CO)NC(=O)c3ccc(cc3)CNC(=O)CC[C@@H](C(=O)N[C@@H](CCCNC(=N)N)C(N)=O)NC1=O)C(=O)N[C@@H](Cc1c[nH]c3ccccc13)C(=O)N[C@@H](CCC(N)=O)C(=O)N2 [Compound 49, [(4-Aminomethyl)benzoyl](1c)*SC(2a)WQC(2a)[Y(2-aminoethoxy)][2-Nal][2-Me-Leu]E(1c)R-[NH2]] ([4Amb]SCWQC[AEF][2Nal][αMeL]ER-NH2; linker 3-6 via CH2COCH2; lactam N-10)
Ki [2]: 1.16 nM

CC(C)C[C@]1(C)NC(=O)[C@H](Cc2ccc3ccccc3c2)NC(=O)[C@H](Cc2ccc(OCCN)cc2)NC(=O)[C@@H]2CSCC(=O)CSC[C@H](NC(=O)[C@H](CO)NC(=O)c3ccc(cc3)CCNC(=O)CC[C@@H](C(=O)N[C@@H](CCCNC(=N)N)C(N)=O)NC1=O)C(=O)N[C@@H](Cc1c[nH]c3ccccc13)C(=O)N[C@@H](CCC(N)=O)C(=O)N2 [Compound 50, [4-(2-Aminoethyl)benzoyl](1c)*SC(2a)WQC(2a)[Y(2-aminoethoxy)][2-Nal][2-Me-Leu]E(1c)R-[NH2]] ([X20]SCWQC[AEF][2Nal][αMeL]ER-NH2; linker 3-6 via CH2COCH2; lactam N-10)
Ki [2]: 5.09 nM | Ki [1]: 5.1 nM

CC(C)C[C@]1(C)NC(=O)[C@H](Cc2ccc3ccccc3c2)NC(=O)[C@H](Cc2ccc(OCCN)cc2)NC(=O)[C@@H]2CSCC(=O)CSC[C@H](NC(=O)[C@H](CO)NC(=O)CCc3ccc(cc3)NC(=O)CC[C@@H](C(=O)N[C@@H](CCCNC(=N)N)C(N)=O)NC1=O)C(=O)N[C@@H](Cc1c[nH]c3ccccc13)C(=O)N[C@@H](CCC(N)=O)C(=O)N2 [Compound 51, [3-(4-Aminophenyl)propanoyl](1c)*SC(2a)WQC(2a)[Y(2-aminoethoxy)][2-Nal][2-Me-Leu]E(1c)R-[NH2]] ([X24]SCWQC[AEF][2Nal][αMeL]ER-NH2; linker 3-6 via CH2COCH2; lactam N-10)
Ki [2]: 2 nM

CC(C)C[C@]1(C)NC(=O)[C@H](Cc2ccc3ccccc3c2)NC(=O)[C@H](Cc2ccc(OCCN)cc2)NC(=O)[C@@H]2CSCC(=O)CSC[C@H](NC(=O)[C@H](CO)NC(=O)Cc3ccc(cc3)CNC(=O)CC[C@@H](C(=O)N[C@@H](CCCNC(=N)N)C(N)=O)NC1=O)C(=O)N[C@@H](Cc1c[nH]c3ccccc13)C(=O)N[C@@H](CCC(N)=O)C(=O)N2 [Compound 52, [4-Aminomethyl-phenylacetyl](1c)*SC(2a)WQC(2a)[Y(2-aminoethoxy)][2-Nal][2-Me-Leu]E(1c)R-[NH2]] ([X1]SCWQC[AEF][2Nal][αMeL]ER-NH2; linker 3-6 via CH2COCH2; lactam N-10)
Ki (hIL-23R, Ki from IC50 by Cheng-Prusoff equation, read-out: Ki determined affinity): 0.057 nM

CC(C)C[C@@H]1NC(=O)[C@H](Cc2c[nH]c3ccccc23)NC(=O)[C@H](Cc2c[nH]c3ccccc23)NC(=O)[C@@H]2CSSC[C@H](NC(=O)[C@H](CO)NC(=O)[C@@H](NC(=O)[C@@H](N)CC(=O)O)CSCC(=O)CSC[C@@H](C(=O)N[C@@H](CCCNC(=N)N)C(N)=O)NC1=O)C(=O)N[C@@H](Cc1c[nH]c3ccccc13)C(=O)N[C@@H](CCC(N)=O)C(=O)N2 [Compound 53, H-DC(1a)SC(2b)WQC(2b)WWLC(1a)R-[NH2]]
Ki: > 1000 nM

CC(=O)N[C@@H](CC(=O)O)C(=O)N[C@H]1CSCC(=O)CSC[C@@H](C(=O)N[C@@H](CCC(=O)O)C(=O)N[C@@H](CC(N)=O)C(=O)NCC(N)=O)NC(=O)[C@](C)(CC(C)C)NC(=O)[C@H](Cc2c[nH]c3ccccc23)NC(=O)[C@H](Cc2c[nH]c3ccccc23)NC(=O)[C@@H]2CSCC(=O)CSC[C@H](NC(=O)[C@H](CCC(N)=O)NC1=O)C(=O)N[C@@H](Cc1c[nH]c3ccccc13)C(=O)N[C@@H](CCC(N)=O)C(=O)N2 [Compound 64, [Ac]-DC(1a)QC(2a)WQC(2a)WW[2-Me-Leu]C(1a)ENG-[NH2]] (Ac-DCQCWQCWW[αMeL]CENG-NH2; linker 2-11, 4-7 via CH2COCH2)
Ki: > 1000 nM

CC(C)C[C@]1(C)NC(=O)[C@H](Cc2ccc3ccccc3c2)NC(=O)[C@H](Cc2ccc(OCCN)cc2)NC(=O)[C@@H]2CCNC(=O)CC[C@H](NC(=O)[C@H](CO)NC(=O)c3cccc(c3)CNC(=O)CC[C@@H](C(=O)N[C@@H](CCCNC(=N)N)C(N)=O)NC1=O)C(=O)N[C@@H](Cc1c[nH]c3ccccc13)C(=O)N[C@@H](CCC(N)=O)C(=O)N2 [Compound 67, [(3-Aminomethyl)benzoyl](1c)*SE(2c)WQ[Dab](2c)[Y(2-aminoethoxy)][2-Nal][2-Me-Leu]E(1c)R-[NH2]] ([3Amb]SEWQ[Dab][AEF][2Nal][αMeL]ER-NH2; lactam 3-6, N-10)
Ki [1]: 0.76 nM

CC(C)C[C@]1(C)NC(=O)[C@H](Cc2ccc3ccccc3c2)NC(=O)[C@H](Cc2ccc(OCCN)cc2)NC(=O)[C@@H]2CCCNC(=O)CC[C@H](NC(=O)[C@H](CO)NC(=O)c3cccc(c3)CNC(=O)CC[C@@H](C(=O)N[C@@H](CCCNC(=N)N)C(N)=O)NC1=O)C(=O)N[C@@H](Cc1c[nH]c3ccccc13)C(=O)N[C@@H](CCC(N)=O)C(=O)N2 [Compound 69, [(3-Aminomethyl)benzoyl](1c)*SE(2c)WQ[Orn](2c)[Y(2-aminoethoxy)][2-Nal][2-Me-Leu]E(1c)R-[NH2]] ([3Amb]SEWQ[Orn][AEF][2Nal][αMeL]ER-NH2; lactam 3-6, N-10)
Ki [1]: 2.76 nM

Cc1cccc2c(C[C@@H]3NC(=O)[C@@H]4CSCC(=O)CSC[C@H](NC(=O)[C@H](CCC(N)=O)NC3=O)C(=O)N[C@@H](Cc3ccc(OCCN)cc3)C(=O)N[C@@H](Cc3ccc5ccccc5c3)C(=O)N[C@@](C)(CC(C)C)C(=O)N[C@H](C(=O)N[C@@H](CCCNC(=N)N)C(N)=O)CCC(=O)NCc3cccc(c3)C(=O)N[C@@H](CO)C(=O)N4)c[nH]c12 [Compound 70, [(3-Aminomethyl)benzoyl](1c)*SC(2a)[7-Me-Trp]QC(2a)[Y(2-aminoethoxy)][2-Nal][2-Me-Leu]E(1c)R-[NH2]] ([3Amb]SC[Trp(7-Me)]QC[AEF][2Nal][αMeL]ER-NH2; linker 3-6 via CH2COCH2; lactam N-10)
Ki [1]: 0.485 nM
